Experimental data reported in patent US4552888A, “Ascorbic acid ethers in angiogene” (Eli Lilly and Company, priority 1983, dated 1985).
Structures can show the parent of a compound that is named as a salt. Where two headings read alike, the source gives them in different places.

Columns and labels:
[1] = pKa by titration; assay type: physicochemical
[2] = tested on: angiogenesis factor; test: Inhibition of angiogenesis factor (3683 Morris hepatoma lysosomal-mitochondrial pellet) induced serpentine vessels in mice; assay type: in vivo, mice (SPF/ND4 female)
Protocol: Lysosomal-mitochondrial pellets containing angiogenesis factor are prepared from 3683 Morris hepatoma. The pellet is diluted with 7-8 ml. of 15% ficoll. With this dilution, 8-10 serpentine vessels will be produced per 0.2 cc. injection as described below for the control group.
Next, 15 SPF/ND4 female mice weighing 20-22 g. are shaved on the left side and then divided into three groups of five each. One group (drug group) is injected subcutaneously and laterally with 0.20 cc. of the lysosomal-mitochondrial preparation diluted with 15% ficoll. This group of mice is then dosed individually by the intraperitoneal route with 0.5 cc. of a solution or suspension in a standard vehicle containing the compound under test, usually at an initial dose level of 300 mg./kg. If this dose level is toxic, two-fold dilutions are made until all mice survive a single dose. The second group of mice (control group) is injected subcutaneously and laterally with 0.2 cc. of the lysosomal-mitochondrial suspension diluted with 15% ficoll and dosed intraperitoneally with 0.5 cc. of the vehicle alone. The third group (negative control) is injected with ficoll solution only (no treatment with drug or vehicle). The mice are sacrificed after 24 hours. Each mouse is placed on its side on a dissecting board with the shaved side up. Starting at the flank, the skin is cut straight to the back of the animal. A similar cut is made behind the front leg. Then the skin is cut along the back making a flap of about one inch by two inches. The skin is carefully separated from the connective tissue using forceps and a scalpel. The skin flap is then laid back exposing the lysosomal-mitochondrial implant which is attached to the skin. The skin flap is gently flattened out and with the use of a binocular dissecting scope, serpentine vessels are observed around the lysosomal-mitochondrial implant and their number counted. All observations of the number of serpentine vessels are made at the same power of the microscope (1X). The average number of serpentine vessels for each group is calculated. The percent inhibition is then calculated according to the following equation. [formula] where sv=average number of serpentine vessels.
If the negative control group described above has any serpentine vessels, the test is invalid due to contamination of the ficoll solution.
Table I covers compounds according to formula I above in which R^2 and R^3 are both H, table II covers compounds in which R^2 and R^3 form a 1-methylethylidene group, and Table III compounds in which R^2 plus R^3 equal a benzylidene group or other group.
One of the compounds of this invention, 3-O-n-octadecyl-5,6-O-(1-methylethylidene)-L-ascorbic acid was tested at a series of dose levels for its ability to inhibit tumor angiogenesis and the results of these tests are set forth in Table IV.

[3] = Mus musculus, ip, 24 h, Table 2, i.p., dose 25 mg./kg., 24 hours, read-out: % inhibition (serpentine vessels)
[4] = Mus musculus, ip, 24 h, Table 3, 150 mg./kg. dose intraperitoneally
[5] = Mus musculus, ip, 24 h, Table 1
[6] = Mus musculus, ip, 24 h, Table 1, i.p., dose 25 mg./kg., 24 hours, read-out: average % inhibition (serpentine vessels)
[7] = Mus musculus, ip, 24 h, Table 2, dose 150 mg./kg.
[8] = Table 2, i.p., dose 10 mg./kg., 24 hours

CCCCCCCCCCCCCCCCCCOC1=C(O)C(=O)O[C@@H]1[C@H](O)CO (relative stereo) [3-O-n-octadecyl isoascorbic acid]
pKa ([1]; read-out: pKa): 11.6

CC1(C)OC[C@@H]([C@H]2OC(=O)C(OCCCCC#N)=C2OCCCCC#N)O1 [2,3-O-bis(4-cyanobutyl)-5,6-O-(1-methylethylidene)-L-ascorbic acid]
titratable group [1]: No titratable group

CC1(C)OC[C@@H]([C@H]2OC(=O)C(OCc3ccc(F)cc3)=C2OCc2ccc(F)cc2)O1 [2,3-O-bis(4-fluorobenzyl)-5,6-O-(1-methylethylidene)-L-ascorbic acid]
inhibition in vivo at 37.5 mg/kg ([2]; Mus musculus, ip, 24 h, Table 2, dose 37.5 mg./kg.): 45% | titratable group [1]: No titratable group

CCCCCCCCCCCCCCCCCCOC1=C(OCCCCCCCCCCCCCCCCCC)[C@@H]([C@@H]2COC(C)(C)O2)OC1=O [2,3-O-bis(n-octadecy-5,6-O-(1-methylethylidene)-L-ascorbic acid]
inhibition in vivo at 25 mg/kg [2, 3]: 18 to 85% | titratable group [1]: No titratable group

CCCCCCCCCCCCCCCOC1=C(OCCCCCCCCCCCCCCC)[C@@H]([C@@H]2COC(C)(C)O2)OC1=O [2,3-O-bis(n-pentadecyl)-5,6-O-(1-methylethylidene)-L-ascorbic acid]
titratable group [1]: No titratable groups

Cc1ccccc1COC1=C(OCc2ccccc2C)[C@@H]([C@@H]2COC(C)(C)O2)OC1=O [2,3-bis(O-2-methylbenzyl)-5,6-O-(1-methylethylidene-L-ascorbic acid]
titratable group [1]: No titratable group

CCCCCCCCCCCCCCCCOC1=C(OCCCCCCCCCCCCCCCC)[C@@H]([C@@H](O)CO)OC1=O [2,3-di-(O-n-hexadecyl)-L-ascorbic acid]
titratable group [1]: no titratable group

CCCCCCCCCCCCCCCCCCOC1=C(OCCCN(C)C)C(=O)O[C@@H]1[C@@H](O)CO [2-O-(3-dimethylaminopropyl)-3-O-n-octadecyl-L-ascorbic acid hydrochloride]
pKa ([1]; read-out: pKa): 8

COCCOC1=C(O)C(=O)O[C@@H]1[C@@H]1COC(c2ccccc2)O1 (stereo partly drawn) [3-(2-methoxyethyl)-5,6-O-benzylidine-L-ascorbic acid]
inhibition in vivo at 150 mg/kg [2, 4]: 31%

COc1ccc(OC)c(C(=O)COC2=C(O)C(=O)O[C@@H]2[C@@H]2COC(C)(C)O2)c1 [3-O-(2,5-dimethoxyphenacyl)-5,6-O-(1-methylethylidene)-L-ascorbic acid]
pKa ([1]; read-out: pKa): 10.6

CC1(C)OC[C@@H]([C@H]2OC(=O)C(O)=C2OCCOCCBr)O1 [3-O-(2-bromoethoxyethyl)-5,6-O-(1-methylethylidene)-L-ascorbic acid]
inhibition in vivo at 240 mg/kg ([2]; Mus musculus, ip, 24 h, Table 2, dose 240 mg./kg.): 71% | pKa ([1]; read-out: pKa): 10.4

O=C1O[C@H]([C@@H](O)CO)C(OCCOCCBr)=C1O [3-O-(2-bromoethoxyethyl)-L-ascorbic acid]
inhibition in vivo at 300 mg/kg [2, 5]: 36%

COCCOC1=C(O)C(=O)O[C@@H]1[C@@H]1COC(C)(C)O1 [3-O-(2-methoxyethyl)-5,6-O-(1-methylethylidene)-L-ascorbic acid]
% inhibition (serpentine vessels) ([2]; Table 2, i.p., range dose 10-240 mg./kg., 24 hours): 28-61% | pKa [1]: 10.31

Cc1ccccc1COC1=C(O)C(=O)O[C@@H]1[C@@H](O)CO [3-O-(2-methylbenzyl)-L-ascorbic acid]
pKa ([1]; read-out: pKa): 10.8

CC1(C)OC[C@@H]([C@H]2OC(=O)C(O)=C2OCCN2C(=O)c3ccccc3C2=O)O1 [3-O-(2-phthalimidoethyl)-5,6-O-(1-methylethylidene)-L-ascorbic acid]
inhibition in vivo at 120 mg/kg ([2]; Mus musculus, ip, 24 h, Table 2, dose 120 mg./kg.): 30% | pKa ([1]; read-out: pKa): 10.3

O=C1O[C@H]([C@@H](O)CO)C(OCCN2C(=O)c3ccccc3C2=O)=C1O [3-O-(2-phthalimidoethyl)-L-ascorbic acid]
inhibition in vivo at 300 mg/kg [2, 5]: 55%

O=C1O[C@H]([C@@H](O)CO)C(OCc2cccc(Br)c2)=C1O [3-O-(3-bromobenzyl)-L-ascorbic acid]
inhibition in vivo at 300 mg/kg [2, 5]: 74% | pKa ([1]; read-out: pKa): 10.5

O=C1O[C@H]([C@@H](O)CO)C(OCc2cccc(Cl)c2)=C1O [3-O-(3-chlorobenzyl)-L-ascorbic acid]
inhibition in vivo at 25 mg/kg [2, 6]: 41%

CC1(C)OC[C@@H]([C@H]2OC(=O)C(O)=C2OCc2cccc(F)c2)O1 [3-O-(3-fluorobenzyl)-5,6-O-(1-methylethylidene)-L-ascorbic acid]
inhibition in vivo at 25 mg/kg [2, 3]: 27 to 82%

O=C1O[C@H]([C@@H](O)CO)C(OCc2cccc(F)c2)=C1O [3-O-(3-fluorobenzyl)-L-ascorbic acid]
inhibition in vivo at 25 mg/kg [2, 6]: 52%

Cc1cccc(COC2=C(O)C(=O)O[C@@H]2[C@@H](O)CO)c1 [3-O-(3-methylbenzyl)-L-ascorbic acid]
inhibition in vivo at 25 mg/kg [2, 6]: 54%

CC1(C)OC[C@@H]([C@H]2OC(=O)C(O)=C2OCCCOc2ccccc2)O1 [3-O-(3-phenoxypropyl)-5,6-O-(1-methylethylidene)-L-ascorbic acid]
inhibition in vivo at 150 mg/kg [2, 7]: 36% | pKa ([1]; read-out: pKa): 10.7

O=C1O[C@H]([C@@H](O)CO)C(OCCCOc2ccccc2)=C1O [3-O-(3-phenoxypropyl)-L-ascorbic acid]
inhibition in vivo at 300 mg/kg [2, 5]: 68%

CC1(C)OC[C@@H]([C@H]2OC(=O)C(O)=C2OCc2ccc([N+](=O)[O-])cc2)O1 [3-O-(4-nitrobenzyl)-5,6-O-(1-methylethylidene)-L-ascorbic acid]
inhibition in vivo at 150 mg/kg [2, 7]: 42 to 85% | pKa ([1]; read-out: pKa): 10.1

CC1(C)OC[C@@H]([C@H]2OC(=O)C(O)=C2OCCCCCCCCCCCO)O1 [3-O-(11-hydroxyundecyl)-5,6-O-(1-methylethylidene)-L-ascorbic acid]
inhibition in vivo at 150 mg/kg [2, 7]: 67% | pKa ([1]; read-out: pKa): 10.8

O=C(O)CCCCCCCCCCOC1=C(O)C(=O)O[C@@H]1[C@@H](O)CO [3-O-(ω-hydroxycarbonyldecyl)-L-ascorbic acid]
inhibition in vivo at 25 mg/kg [2, 6]: 41%

CCCCOC1=C(O)C(=O)O[C@@H]1[C@@H]1COC(c2ccccc2)O1 (stereo partly drawn) [3-O-n-butyl-5,6-O-(benzylidene)-L-ascorbic acid]
inhibition in vivo at 150 mg/kg [2, 4]: 60%

CCCCCCCCCCCCCCCCOC1=C(O)C(=O)O[C@@H]1[C@@H](O)CO [3-O-n-hexadecyl)-L-ascorbic acid]
inhibition in vivo at 25 mg/kg [2, 6]: 31% | pKa ([1]; read-out: pKa): 11.1

CCCCCCCCCCCCCCCCCCOC1=C(O)C(=O)O[C@@H]1[C@@H]1COC(C)(CCl)O1 (stereo partly drawn) [3-O-n-octadecyl-5,6-O-(1-chloromethylethylidene)-L-ascorbic acid]
pKa ([1]; read-out: pKa): 9

CCCCCCCCCCCCCCCCCCOC1=C(O)C(=O)O[C@H]1[C@H](O)CO [3-O-n-octadecyl-D-ascorbic acid]
pKa ([1]; read-out: pKa): 11

CCCCCCCCCCCCCCCOC1=C(O)C(=O)O[C@@H]1[C@@H]1COC(C)(C)O1 [3-O-n-pentadecyl-5,6-O-(1-methylethylidene)-L-ascorbic acid]
pKa ([1]; read-out: pKa): 10.9

CCCCCCCCCCCCCCCOC1=C(O)C(=O)O[C@@H]1[C@@H](O)CO [3-O-n-pentadecyl-L-ascorbic acid]
inhibition in vivo at 300 mg/kg [2, 5]: 50%

O=C1OC(C2COC(Cc3ccccc3)(Cc3ccccc3)O2)C(O)=C1O [5,6-O-(1-benzyl-2-phenylethylidene)-L-ascorbic acid]
pKa ([1]; read-out: pKa): 6.55

CC1(CCl)OC[C@@H]([C@H]2OC(=O)C(O)=C2O)O1 (stereo partly drawn) [5,6-O-(1-chloromethylethylidene)-L-ascorbic acid]
pKa ([1]; read-out: pKa): 6.1

CCCCCCCCCCC1OC[C@@H]([C@H]2OC(=O)C(O)=C2O)O1 (stereo partly drawn) [5,6-O-undecylidene-L-ascorbic acid]
pKa ([1]; read-out: pKa): 6.48

O=C1O[C@H]([C@@H](O)CO)C(OCc2ccccc2Cl)=C1O [R=2-chlorobenzyl, R^1=H (Table 1)]
average % inhibition (serpentine vessels) ([2]; Table 1, i.p., dose 25 mg./kg., 24 hours): 55%

CCOC(=O)COC1=C(O)C(=O)O[C@@H]1[C@@H]1COC(C)(C)O1 [R=C2 H5 OCOCH2, R^1=H (Table 2)]
% inhibition (serpentine vessels) [2, 8]: 12%

COC1=C(O)C(=O)O[C@@H]1[C@@H]1COC(C)(C)O1 [R=methyl, R^1=H (Table 2)]
% inhibition (serpentine vessels) [2, 8]: 15%

CCCCOC1=C(O)C(=O)O[C@@H]1[C@@H]1COC(C)(C)O1 [R=n-butyl, R^1=H (Table 2)]
% inhibition (serpentine vessels) [2, 8]: 60%

CCCCCCCCCCOC1=C(O)C(=O)O[C@@H]1[C@@H]1COC(C)(C)O1 [R=n-decyl, R^1=H (Table 2)]
% inhibition (serpentine vessels) [2, 8]: 48%

CCCCCCOC1=C(O)C(=O)O[C@@H]1[C@@H]1COC(C)(C)O1 [R=n-hexyl, R^1=H (Table 2)]
% inhibition (serpentine vessels) [2, 8]: 41%
